From patent publication US20050123571A1, “Modulation of apoptosis” (priority 2003, published 2005)
Where a SMILES comes first, the peptide text is derived from it. The star is where a group is joined. Cbz = O=C(OCc1ccccc1)*; CH2F = FC*

Tests used:
[1] = tested on: Ian4−/− BBDP T cells; assay: Mitochondrial membrane potential (Δψm) by MitoLight flow microfluorometry; assay type: cell-based, rat; conditions: control incubation with uncoupler, 50 μM, 15 minutes, 37° C.; positive control for dissipation of Δψm
Method: Flat bottom 6-well culture plates (Falcon, Franklin Lakes, N.J.) were incubated with 10 μg/well anti-CD3 mAb, 10 μg/well anti-CD28 mAb, or both, in PBS at 4° C. After overnight incubation, plates were rinsed three times with PBS. Nylon wool-purified T cells were cultured in antibody-coated wells at 6×10^6 cells/well in 3 ml complete AIM-V media (AIM-V plus 55 μM 2-mercaptoethanol, Sigma) for 17, 40, or 68 hr in a humidified incubator at 37° C. with 5% CO2. Un-stimulated cells were incubated in complete AIM-V alone. Mitochondrial membrane potential (Δψm) of thymocytes and T cells was measured by two- or three-color flow microfluorometry using MitoLight™ (Chemicon, Temecula, Calif.) alone or in combination with biotin-conjugated anti-αβTCR mAb. Mitolight™ was employed according to the manufacturer's instructions. It is a lipophilic cation with a cellular distribution similar to that of JC-1. […] When the concentration of JC-1 reaches a threshold, it forms aggregate, causing a shift in its absorbed and emitted fluorescence (S. T. Smiley et al., Proc. Natl. Acad. Sci. U.S.A 88, 3671-3675 (1991)). […] For each experiment control and BBDP T cells were analyzed for both red and green fluorescence after Mitolight™ labeling. […] For each analysis, a minimum of 10,000 events was analyzed.

[2] = tested on: Lymph node T cells from BBDP rats; assay: Caspase inhibition, sub-diploid DNA; assay type: cell-based, rat; conditions: 17 hr of culture, varying concentrations
Method: The percentage of T cells with sub-diploid DNA was measured as described (I. Nicoletti, G. Migliorati, M. C. Pagliacci, F. Grignani, C. Riccardi, J. Immunol. Methods 139, 271-279 (1991)). Briefly, freshly isolated or in vitro stimulated lymph node T cells were washed twice with PBS and centrifuged at 1500 rpm for 5 min. Pellets (2×10^6) were resuspended in 200 μl of PBS, fixed in 70% cold ethanol, and stored at 4° C. until used. At the time of analysis, cells were washed twice with PBS and incubated at 25° C. for 40 min in 500 μl of PBS containing 0.1% Triton X-100 and 50 μg of RNase (Boehringer Mannheim, Indianapolis, Ind.). Propidium iodide (10 μg, Sigma, St. Louis, Mo.) was added, and the suspension was incubated in the dark for 15 min. DNA content was determined by flow microfluorometry using a FACStarR® instrument (Becton Dickinson, San Jose, Calif.). Lymphoid cells were identified electronically by their forward and side light-scatter characteristics. For each analysis, a minimum of 10,000 events was analyzed.
Lymph node T cells from BBDP rats were prepared as described above and cultured in AIM-V medium in the presence or absence of varying concentrations of the caspase inhibitors Z-VAD-FMK, Z-VDVAD, Z-DEVD, D-IETD, and Z-LEHD obtained from R&D Systems (Minneapolis, Minn.). […] Cells were then harvested, and the percentage of cells with sub-diploid DNA was determined as above.

| Structure (SMILES) | percentage of T cells with high Δψm [1] [%] | apoptosis of Ian4−/− T cells (percentage of cells with sub-diploid DNA) [2] |
| --- | --- | --- |
| N#CC(C#N)=NNc1cccc(Cl)c1 [CCCP, carbonyl cyanide m-chlorophenyl-hydrazone] | ~4 |  |
| COC(=O)C[C@H](NC(=O)[C@H](C)NC(=O)[C@@H](NC(=O)OCc1ccccc1)C(C)C)C(=O)CF [Z-VAD-frnk] (Cbz-Val-Ala-Asp(OMe)-CH2F) |  | prevented apoptosis |
